Test results from patent publication US7960552B2, “Farnesoid X receptor agonists” (GlaxoSmithKline LLC, priority 2006, dated 2011).
“Also recorded” adds a separate entry of the source.

Tests used:
[1] = test system: high-fat diet fed obese mice; assay: Effects of FXR agonists on diet induced obese mice; type: in vivo, C57BL mice; details: 10, 30 and 100 mg/kg twice a day orally; for serum NEFA / serum cholesterol / serum glucose / serum glycerol / serum insulin / serum triglyceride: end of study; for body fat mass: four weeks of treatment, QMR
Protocol: Methods: Male 20 to 25 g C57BL mice (Charles River, Indianapolis, Ind.) were housed at 72° F. and 50% relative humidity with a 12 h light and dark cycle and fed with standard rodent chow (Purina 5001, Harlan Teklad, Indianapolis, Ind.) or a high-fat diet (TD93075, Harlan Teklad, Indianapolis, Ind.) for eight weeks. After three weeks, mice on high-fat diet were randomized to vehicle or treatment groups based on fasting glucose and body weight. Starting from the fifth week, mice were given either vehicle or the compound in Example 1 (10, 30 and 100 mg/kg) or the compound in Example 5 (10, 30, 100 mg/kg) twice a day orally. Mice on the standard rodent chow were also given vehicle as a control. Body composition was measured using the quantitative magnetic resonance (QMR) method before and at the end of compound treatment. […] Serum chemistry levels were measured using the Instrumentation Laboratory Ilab600™ clinical chemistry analyzer (Instrumentation Laboratory, Boston, Mass.).

[2] = test system: high-fat diet induced insulin resistant, glucose intolerant, and obese mouse model; details: mice on high-fat diet, cited from earlier work
[3] = test system: db/db mice; details: oral 30 mg/kg, bid; cited from earlier work
[4] = test system: bile duct-ligated mouse model; details: cited from earlier work
[5] = test system: rodent models of hepatic fibrosis; details: multiple rodent models; cited from earlier work
[6] = test system: hepatic stellate cells (HSC); details: cultured HSCs; cited from earlier work
[7] = 100 mg/kg twice a day orally, 100 mg/kg

With `CC(C)c1onc(-c2c(Cl)cccc2Cl)c1COc1ccc(-c2ccc3nc(C(=O)O)ccc3c2)cc1` [Example 1, 6-[4-({[3-(2,6-Dichlorophenyl)-5-(1-methylethyl)-4-isoxazolyl]methyl}oxy)phenyl]-2-quinolinecarboxylic Acid] the “serum NEFA” value [1] was “decreased”, the serum cholesterol [1] was “decreased” and the serum glucose [1] was “decreased”. For the same compound, the serum glycerol [1] was “decreased”, the serum insulin [1] was “decreased” and the serum triglyceride [1] was “decreased”. For the same compound, the body fat mass [1] was “decreased”.

In the case of `CC(C)c1onc(-c2c(Cl)cccc2Cl)c1COc1ccc(/C=C/c2cccc(C(=O)O)c2)c(Cl)c1` [GW4064], the serum glucose [2, 7] is given as “decreased”, the serum insulin [2, 7] is given as “decreased” and the serum triglyceride [2, 7] is given as “decreased”. The glucose tolerance ([2]; 100 mg/kg twice a day orally, GTT, 100 mg/kg) was “corrected glucose intolerance; also recorded: improve”, the “high-fat diet induced body weight gain” value ([2]; 100 mg/kg twice a day orally) was “reduced” and the liver triglyceride content ([2]; 100 mg/kg twice a day orally) was “reduced”. The body fat mass [2] was “decrease”, the body weight [2] was “decrease” and the serum total cholesterol [2] was “decrease”. For the same compound, the NEFA [3] was “decreased”, the total cholesterol [3] was “decreased” and the triglyceride [3] was “decreased”. The bacterial overgrowth [4] was “decreased”, the mucosal barrier [4] was “improved” and the “translocation of bacteria to mesenteric lymph nodes” value [4] was “decreased”.

In the case of `CC(C)c1onc(-c2c(Cl)cccc2Cl)c1COc1ccc(-c2ccc3cc(C(=O)O)ncc3c2)cc1` [Example 5, 7-[4-({[3-(2,6-Dichlorophenyl)-5-(1-methylethyl) -4-isoxazolyl]methyl}oxy)phenyl]-3-isoquinolinecarboxylic acid], the “serum NEFA” value [1] is reported as “decreased”, the serum cholesterol [1] is reported as “decreased” and the serum glucose [1] is reported as “decreased”. For the same compound, the serum glycerol [1] was “decreased”, the serum insulin [1] was “decreased” and the serum triglyceride [1] was “decreased”. For the same compound, the body fat mass [1] was “decreased”.

In the case of `CC[C@H]1[C@@H](O)[C@@H]2[C@H](CC[C@]3(C)[C@@H]([C@H](C)CCC(=O)O)CC[C@@H]23)[C@@]2(C)CC[C@@H](O)C[C@@H]12` [Example 6EtCDCA, 6-ethyl-chenodeoxycholic acid], the “development of hepatic fibrosis” value [5] is given as “prevent”, the “resolution of hepatic fibrosis” value [5] is given as “promote” and the “expression of fibrotic marker α1(I)collagen” value [6] is given as “decreased”. For the same compound, the “expression of fibrotic marker α-smooth muscle actin” value [6] was “decreased”.
